We go through four compounds from patent publication US20180235917A1, “COMPOSITIONS, METHODS AND KITS FOR TREATMENT OF DIABETES AND/OR […]” (NuSirt Sciences, Inc., priority 2014, published 2018).

Where only a bound is given, the exact number is not on record here.

The subject of data set [1] is C2C12 myotubes. As to conditions: Mooney et al. 2008; cited from earlier work.
Data set [2] deals with C2C12 myotubes. Put plainly: Glucose utilization (extracellular acidification response to glucose) in myotubes. Format: cell-based, mouse.
In data set [3] the test system is 3T3-L1 adipocytes. Put plainly: Fatty acid oxidation (palmitate-induced O2 consumption, Seahorse XF24) in adipocytes. Type of data set: cell-based, mouse. Particulars: 24-hour Met-Leu treatment.
The test system of data set [4] is adipocytes (3T3-L1) and myotubes (C2C12). Nature of the data set: Glucose utilization (extracellular acidification), cell type not stated. Type of data set: cell-based, mouse. As to conditions: compound alone. The procedure: In the absence of a fatty acid source and oxidative metabolism, glycolysis and subsequent lactate production results in extracellular acidification, which was also measured using a Seahorse Bioscience XF24 analyzer. Cells were prepared and equilibrated similar to the methods described above for fatty acid oxidation, with the exclusion of carnitine from the medium. Following instrument equilibration and three baseline measurements, glucose was injected to a final concentration of 10 mM in each well. Measurements were taken as described above utilizing the sensors for extracellular acidification rather than O2 consumption. Insulin (final concentration of 5 nM) was added to some wells as a positive control. Data for each sample were normalized to the pre-glucose injection baseline for that sample and expressed as % change from that baseline. The area under of the curve of extracellular acidification change from baseline for each sample was then calculated and used for subsequent analysis.
In the absence of a fatty acid source and oxidative metabolism, glycolysis and subsequent lactate production results in extracellular acidification, which was also measured using a Seahorse Bioscience XF24 analyzer. […] Data for each sample were normalized to the pre-glucose injection baseline for that sample and expressed as % change from that baseline. […]

The test system of data set [5] is LDL receptor knockout (Ldlr−/−) mice. Put plainly: Ldlr−/− mice on atherogenic diet with leucine/metformin/nicotinic acid (Example 15). Format: in vivo, Mus musculus.
For data set [6], the system named is LDL receptor knockout (LDLRKO) mice. Nature of the data set: Planned study in LDL receptor knockout mice with leucine/metformin/nicotinic acid (Example 13). Type of data set: in vivo, mouse.
Data set [7] relates to AMPK. As to conditions: 3T3-L1 adipocytes.
The subject of data set [8] is Caenorhabditis elegans. Put plainly: Lifespan of C. elegans (Example 10). Type of data set: in vivo. As to conditions: basal conditions; leucine 0.5 mM, nicotinic acid 10 nM. The procedure: Eggs were hatched on a starved plate overnight. […] All treatments were added with the indicated concentrations to E. coli the agar plates. […] The worms were maintained at 20° C. throughout the duration of the study. Worms were transferred to new plates daily to eliminate progeny. […] The study was continued until the last animal was dead. Data were analyzed via Kaplan-Meier survival curves using Prism 6 (GraphPad Software) and statistical significance was determined by the Log-rank (Mantel-Cox) test.

Data set [9] relates to patients pre-diagnosed with hyperlipidemia. Nature of the data set: Planned study in patients: atherosclerotic plaque size by quantitative coronary angiography (Example 9). Format: in vivo, human. As to conditions: oral twice a day, 3 years; nicotinic acid 50 mg, leucine 550 mg, resveratrol 50 mg. The procedure:
Patients that experience acute chest pain and are pre-diagnosed with hyperlipidemia are admitted for the randomized and double blind study. […] The treatments are administered orally twice a day, for 3 years continuously. The size of atherosclerotic plaque is measured at day 0, months 6, 12, 18, 24, 30 and 36 by quantitative coronary angiography.

Data set [10] relates to LDL receptor knockout mice. Nature of the data set: LDL receptor knockout mice on western diet: plasma lipids, atherosclerosis, macrophage infiltration (Example 7). Format: in vivo, mouse. The source says: LDL receptor knockout (LDLRKO) mice were obtained from Jackson Laboratories (Bar Harbor, Me.), and housed in groups under room temperature in a humidity-controlled environment with a regular light and dark cycle. The mice were provided free access to an atherogenic western diet (WD) containing 0.21% cholesterol (by weight) and 40% calories from fat and water for 4 weeks prior to treatment. For treatment, the mice were given (a) the WD diet alone, (b) WD and 24 g of leucine/kg diet, (c) WD and 24 g of leucine/kg diet and 50 mg nicotinic acid/kg diet, (d) WD and 24 g of leucine/kg diet and 250 mg nicotinic acid/kg diet, or (e) WD and 1000 mg nicotinic acid/kg diet; this is approximately equivalent to a low therapeutic dose of nicotinic acid in hypercholesterolemic humans (˜1,500 mg/day). The treatments were administered for eight weeks continuously.
Blood samples of the mice in all groups were obtained from tails of the mice at following four and eight weeks of administration. The serum/plasma levels of triglyceride, total cholesterol and cholesterol esters were measured. Following treatment, food was removed for four hours and the animals were euthanized.
Blood was collected into EDTA-coated tubes to analyze plasma lipid and cholesterol profiles. Plasma total cholesterol (TC, Pointe Scientific, Canton, Mich.), free cholesterol (FC, Wako, Richmond, Va.) and triglyceride (TG, Wako, Richmond, Va.) concentrations were measured using enzymatic assays according to manufacturer's instructions. Cholesterol ester (CE) was calculated as the difference between TC and FC.
To assess atherosclerosis, the circulatory system was perfused following euthanasia with phosphate-buffered saline (PBS) before removing the heart and aorta. The upper one-third of the heart was dissected and embedded in Optimal Cutting Temperature Compound (Sakura Tissue-Tek, Torrance, Calif.), frozen, and stored at −80° C. Blocks were serially cut at 8 μm intervals and stained with hematoxylin and 0.5% Oil Red O (Sigma-Aldrich) to evaluate aortic sinus atherosclerotic intimal area. Atherosclerotic lesion area and Oil Red O positive area were quantified using Image-Pro Plus software (Media Cybernetics, Bethesda, Md.). Whole aorta (from sinotubular junction to iliac bifurcate) was dissected and fixed in 10% formalin, and the adventitia was cleaned. Aortas were opened along the longitudinal axis and pinned onto black silicon elastomer (Rubber-Cal, Santa Ana, Calif.) for the quantification of atherosclerotic lesion area. The percentage of total aortic surface covered with atherosclerotic lesions was quantified by Image-Pro Plus software (Media Cybernetics, Bethesda, Md.) and used to determine the total lesion area.
To assess macrophage infiltration, Sections of aortic sinus were immuno-stained with rat monoclonal antibody against macrophage-specific CD68 (Clone FA11, 1:75, AbD Serotec, Raleigh, N.C.) followed by staining with alkaline phosphatase-conjugated mouse anti-rat (for CD68, 1:50) secondary antibodies (Jackson ImmunoResearch laboratories, West Grove, Pa.). Control slides contain no primary antibody. The CD68-positive areas were analyzed using Image-Pro Plus software (Media Cybernetics, Bethesda, Md.).

The test system of data set [11] is patients pre-diagnosed with hyperlipidemia. Nature of the data set: Planned study in hyperlipidemic patients: lipids and cutaneous vasodilation (Example 8). Format: in vivo, human. As to conditions: for triglyceride, LDL, cholesterol and HDL levels compared to day 0: oral twice a day, 60 days. The procedure:
Patients that are pre-diagnosed with hyperlipidemia are admitted for the randomized and double blind study. […] The treatments are administered orally twice a day, for 60 days continuously. […] The serum/plasma levels of triglyceride, cholesterol, LDL and HDL are measured. Cutaneous vasodilation is measured by laser-Doppler flowmeter and the discomfort level described by the patients.

Data set [12] has as its system Sirt1. Particulars: C2C12 myotubes.
Setting [13] is: 24 hours, nicotinic acid 10 nM, leucine 0.5 mM, resveratrol 200 nM.
Setting [14] is: nicotinic acid 50 mg, leucine 550 mg, resveratrol 50 mg.

Regarding `CC(C)=CCN=C(N)N` [galegine], in data set [1], the “concentration below which published literature shows no effect” value was under 100 µM. In data set [2] (C2C12 myotubes, 5 nM insulin, galegine 5 μM, leucine 0.5 mM), the “increase in insulin-stimulated glucose utilization” value is on record as “no effect”. Moreover, the “concentrations with no independent effect on basal or insulin-stimulated glucose utilization (dose response curves)” value in data set [2] (galegine alone) is reported as “up to 500 μM”.
With `c1cc(-c2cnn3cc(-c4ccc(OCCN5CCCCC5)cc4)cnc23)ccn1` [Compound C], the “effect of the AMPK inhibitor on the Met-Leu increase in palmitate-induced fatty acid oxidation” value in [3] is on record as “completely blocked this increase”.
For `N=C(N)N` [Guanidine], the “no-effect threshold for stimulation of glucose utilization” value in data set [4] fell in the range of 0.1 to 1 µM.
For the compound `O=C(O)c1cccnc1` [nicotinic acid], in data set [5] (8 weeks, nicotinic acid 1000 mg/kg diet, or leucine 24 g/kg + metformin 0.5 g/kg + nicotinic acid 50 mg/kg diet, vs atherogenic diet), the fasting blood glucose entry is listed as “no change”. Also, in data set [5] (Day 56, doses as E126), the “plasma LDL cholesterol” value is on record as “significantly lower”, the plasma cholesterol entry is on record as “significantly lower” and the plasma triglycerides result is given as “significantly lower”. Further, in data set [5] (doses as E126), the “Oil Red O staining area in the heart and aorta” value was “significantly less Oil Red O staining area”; the “atherosclerosis (histological images of heart)” value is recorded as “reduced”; the fasting plasma insulin result is recorded as “no change”. For the same compound, the “plasma insulin and HOMAIR index” value in data set [6] (diet doses: metformin 1.5 g/kg alone or 0.25 g/kg in combinations, nicotinic acid 1000 mg/kg alone or 50 mg/kg in combinations, leucine 24 g/kg) is “high plasma insulin and HOMAIR index”. Moreover, the “atherosclerotic lesion size and aortic macrophage infiltration relative to western diet alone” value in data set [6] (doses as E112) was “decrease atherosclerotic lesion size and decrease in aortic macrophage infiltration”. In addition, in data set [7], the “concentrations that alone exert no effect (dose-response study)” value was under 100 nM. Further, in data set [7] (setting [13]), the “AMPK activation (P-AMPK/AMPK)” value was “no significant effect”. Further, the effect on lifespan entry in data set [8] is on record as “no independent effect”. Further, the “size of atherosclerotic plaque compared to day 0” value in data set [9] is given as “similar, without statistically significant difference”. Besides, the “decrease in aortic macrophage infiltration (CD68 positive area)” value in [10] (eight weeks, doses as E77) is given as about 50%. Besides, in data set [10] (eight weeks, nicotinic acid 1,000 mg/kg diet, leucine 24 g/kg diet, or leucine + nicotinic acid 50 mg/kg diet, vs western diet alone), the “decrease in atherosclerotic lesion size (lesion and lipid area)” value is about 50%. In data set [10] (four weeks, doses as E73), the “decrease in plasma cholesterol esters” value is reported as 28% and the “decrease in plasma triglycerides” value is on record as 32%. For the same compound, the “decrease in plasma total cholesterol” value in data set [10] (four weeks, western diet + nicotinic acid 1,000 mg/kg diet, leucine 24 g/kg diet, or leucine + nicotinic acid 50 or 250 mg/kg diet) stood at 20%. Besides, in data set [11] (setting [14]), the “cutaneous vasodilation compared to 1500 mg nicotinic acid” value is “lower”; the “triglyceride, LDL, cholesterol and HDL levels compared to day 0” value is given as “similar, without statistically significant difference”. Besides, in data set [11] (nicotinic acid 1500 mg alone), the “cutaneous vasodilation compared to all other groups” value is given as “significant higher cutaneous vasodilation”; the “triglyceride, LDL, cholesterol and HDL levels compared to day 0” value was “significantly lower triglyceride, LDL and cholesterol levels, and significantly higher HDL level”. The “concentrations that alone exert no effect (dose-response study)” value in data set [12] is recorded as under 100 nM. Further, in data set [12] (setting [13]), the “increase in Sirt1 levels” value was “did not have a significant effect”.
